Results: article PMC11486602 (The New phytologist, 2024)

Tests used:
[1] = biological target: T1, PROTODERMAL FACTOR2 (PDF2) (Arabidopsis thaliana, UniProt Q93V99); experiment: microscale thermophoresis with […] DOPC/LysoPC […] liposomes; format: binding
T1 sequence (Q93V99 244-476 limits assumed): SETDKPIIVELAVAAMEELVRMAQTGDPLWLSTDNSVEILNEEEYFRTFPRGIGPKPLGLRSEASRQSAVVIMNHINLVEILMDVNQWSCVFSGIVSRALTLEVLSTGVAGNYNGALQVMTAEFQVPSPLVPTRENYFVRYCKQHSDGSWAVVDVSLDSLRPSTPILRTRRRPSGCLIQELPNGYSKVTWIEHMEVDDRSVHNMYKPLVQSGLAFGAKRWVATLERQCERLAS

[2] = biological target: PROTODERMAL FACTOR2 (PDF2), pdf2(START)^L467P (Arabidopsis thaliana, UniProt Q93V99, L467P); experiment: as above; format: binding
Sequence of PROTODERMAL FACTOR2 (PDF2), pdf2(START)^L467P (Q93V99 244-476 L467P): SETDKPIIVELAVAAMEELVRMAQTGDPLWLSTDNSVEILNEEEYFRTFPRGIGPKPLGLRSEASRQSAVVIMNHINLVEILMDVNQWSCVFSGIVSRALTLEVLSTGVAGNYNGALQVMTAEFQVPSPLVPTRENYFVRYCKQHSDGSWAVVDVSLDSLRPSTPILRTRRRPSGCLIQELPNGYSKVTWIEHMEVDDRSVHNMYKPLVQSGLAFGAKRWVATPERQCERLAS

LysoPC 18:1
Kd [1]: 17 µM
Kd [2]: 200 µM
